According to patent publication US8772250B2, “Compositions and methods for treating ischemia and ischemia-reperfusion injury” (Ischemix, LLC, priority 2010, dated 2014):
Peptide text beside a SMILES is read from it.

Legend:
[1] = test system: CHO M1-WT3 cells; assay: Cytosolic calcium overload assay, carbachol stimulated; assay type: cell-based, Chinese hamster; conditions: 200 nM carbachol, variant concentrations
Source text: Cytosolic calcium increases in the CHO M1-WT3 cells when stimulated with carbachol ([Molecular Devices, FlexStation Application Note 2, Comparison of FLIPR® and FLEXstation™ for Calcium Mobilization Assays]) and may be detected with a fluorescent dye that binds calcium. An increase in fluorescence following carbachol stimulation is interpreted as an increase in cytosolic calcium. Chinese hamster ovary (CHO) cells were allowed to adhere to the bottom of a 96-well culture plate. The fluorescent dye and a test sample were placed on the plate and allowed to be taken up by the cells. The fluorescence level was measured every two seconds using a plate reader (Flexstation II, Molecular Devices, Sunnyvale Calif.). The cells were stimulated with carbachol and fluorescent data reported as the peak increase in fluorescence above baseline following carbachol stimulation. Data were normalized to the peak carbachol response in the control sample.
CHO cells from the cell line CHO-M1-WT3 were grown in Hams F12 medium supplemented with 10% FBS and 5 μg/mL G418 to maintain expression of the M1 muscarinic receptor. Cells were seeded the night before the experiment at a concentration of 30,000 cells/well in a volume of 100 μL per well of black walled, clear bottomed, 96-well microplates (“assay plates”). Cells were incubated at 37° C. and 5% CO2 overnight. […] The cells were placed into the FlexStation system to monitor fluorescence before and after the addition of 50 μL of 1 μM carbachol for a final concentration of 200 nM. Fluorescence was measured for 17 seconds prior to carbachol addition and 43 seconds following carbachol addition. The Fluo-4 dye was excited at a wavelength of 485 nm and emission measured at 525 nm. The Calcium-3 dye was excited at a wavelength of 494 nm and emission measured at 525 nm. The calcium response was reported as the peak fluorescence minus the baseline fluorescence calculated as the average of the fluorescence prior to carbachol addition.

[2] = test system: myocardial ischemia-reperfusion injury; assay: Rat model of myocardial I/R injury (MI/AR ratio); assay type: in vivo; conditions: rat model of myocardial I/R injury; data not shown
Source text: A rat model of myocardial I/R injury was used as an in vivo screen to determine if certain lipoic acid derivative compounds are cardio-protective (e.g., against mycoardial ischemia-reperfusion injury). This model is analogous to the ischemia-reperfusion injury observed in cardiac patients following coronary occlusions and cardiac surgery procedures, such as coronary artery bypass grafting (CABG) (Matsui, T., Tao, J., del Monte, F., Lee, K.-H. et al., Akt Activation Preserves Cardiac Function and Prevents Injury After Transient Cardiac Ischemia In vivo, Circulation 2001, 104:330).
The circumflex branch of the left coronary artery was ligated temporarily to induce regional ischemia in the left ventricular mass, followed by the injection of fluorescent microspheres to delineate the ischemic region. The animals were sacrificed about 24 hours after reperfusion and the hearts were excised, sectioned and stained with triphenyltetrazolium. The direct impact of the pharmacologic intervention was determined by measuring the myocardial infarct area (MI), the ischemic area at risk (AR) and the left ventricular area (LV). The reduction of MI over the AR (MI/AR ratio) was used as the primary measure of drug efficacy relative to vehicle controls.
Male Sprague-Dawley rats between 300 and 350 gm were used for these experiments. Anesthesia was induced with 3-4% isoflurane in an induction chamber. After induction, anesthesia was maintained at a surgical plane with 1.5-2.0% isoflurane, administered by a Rodent Ventilator through a 16-gauge angiocatheter introduced orally into the trachea. The ventilator was set at 2.5 cc at a rate of 60-65 breaths per minute to maintain ventilation during surgery. The core temperature of the animal was monitored and maintained at 37° C. using a rectal probe and a heating lamp attached to a temperature controller.
A left anterior thoracotomy was performed and the heart was exposed using a vertical pericardotomy. The circumflex branch of the left coronary artery (LCx) was ligated approximately 4 mm from the aorta using a cardiovascular 7.0 monofilament suture on an 11 mm needle to induce ischemia in the left ventricle.
Fluorescent microspheres (300 μL) were injected into the left ventricular cavity 10-20 minutes after the ligation to delineate the ischemic area. The suture was removed 30 minutes after ligation to reperfuse the ischemic area and the ischemic area was checked for reperfusion.
The chest was then closed in layers using absorbable suture (Dexon 5-0) for the muscle layers and monofilament Nylon 5-0 suture was used to close the cutaneous layer. The animals were allowed to recover, then were returned to the colony.
Twenty-four hours after reperfusion, anesthesia was induced using ketamine hydrochloride and the chest was opened. The animals were sacrificed with 15% potassium chloride aqueous solution (w/v) injected into the LV cavity to arrest the heart in diastole. The heart was excised distal to the aortic valve and washed with saline to remove the blood. Sagittal slices of the heart were obtained between the base of the ventricle and the apex. Five slices of heart tissue were obtained, each 2 mm thick. The slices were immersed in a 1% 2,3,5-triphenyl-2H-tetrazolium chloride (TTC) in saline solution and then stored in the dark for 30 minutes to stain.
Images of the slices were obtained under bright field (to observe the TTC staining) and under fluorescence (to observe the microspheres). The area at risk was determined by the absence of microspheres and the infarct area was determined by the absence of TTC staining.
In vivo experiments employing a rat model of myocardial I/R injury were performed as described in Example 8. Catheterized (jugular vein) rats were used for intravenous dose administration at time points prior to and/or including 0.25 h.

[3] = Oxygen Radical Absorbance Capacity (ORAC) assay
Source text: Peroxyl radicals are one species of reactive oxygen produced by cells during reperfusion. The presence of peroxyl radicals can be detected by fluorescein oxidation. In the presence of peroxyl radicals, fluorescein fluorescence will decay over time. In the presence of an oxygen radical scavenger, the rate of decay is diminished. The change in the rate of decay between control and in the presence of scavengers is used to measure the peroxyl radical scavenging ability of a test compound.
Each compound tested was diluted to a concentration ranging from 25 μM to 250 μM in 10 mM phosphate buffer (pH=7.4) containing 10 nM fluorescein. The buffer and compound were incubated at 37° C. for 10 minutes. After the incubation, flourescein fluorescence was measured using a plate reader (Molecular Devices Flexstation II, Ex=485, Em=520). Baseline fluorescence measurements were recorded for 15 minutes before 2,2′-azobis(2-methylpropionamidine) dihydrochloride (AAPH) was added. The fluorescence decay was recorded for 90 minutes. The fluorescence decay without compound was subtracted from the fluorescence decay with compound. The slope of the decay vs. concentration is reported as the absorbance capacity.

[4] = target: IGF1R (Homo sapiens, UniProt P08069); assay: IGF1R tyrosine kinase activation assay (mobility shift); assay type: biochemical
IGF1R, sequence (P08069 959-1367 limits assumed, species assumed): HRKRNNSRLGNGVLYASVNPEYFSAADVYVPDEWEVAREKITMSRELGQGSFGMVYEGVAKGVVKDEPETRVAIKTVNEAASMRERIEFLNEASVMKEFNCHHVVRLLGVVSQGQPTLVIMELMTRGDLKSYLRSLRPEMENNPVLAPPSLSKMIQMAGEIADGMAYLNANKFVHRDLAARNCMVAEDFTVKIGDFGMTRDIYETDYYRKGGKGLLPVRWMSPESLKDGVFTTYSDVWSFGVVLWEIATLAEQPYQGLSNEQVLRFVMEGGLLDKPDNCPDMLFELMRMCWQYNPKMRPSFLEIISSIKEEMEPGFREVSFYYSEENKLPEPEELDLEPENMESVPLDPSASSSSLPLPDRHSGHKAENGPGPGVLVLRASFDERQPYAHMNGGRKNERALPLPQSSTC
Source text: (§1) IGF1R and Src tyrosine kinases have endogenous levels of activity in the presence of ATP and substrate. This activity was readily measured using a mobility shift assay using a Caliper LabChip® 3000 and a 12-sipper LabChip® to detect both phosphorylated and unphosphorylated substrate (Caliper Life Sciences, Discovery Alliances and Services Division). Enzyme, substrate and ATP concentrations were optimized for each assay. For the IGF1R assay, the final concentrations of the enzyme, peptide and ATP were 20 nM, 1.5 μM, and 1220 μM, respectively. For the Src assay, the final concentrations of the enzyme, peptide and ATP were 2.5 nM, 1.5 μM, and 17 μM, respectively.
(§2) RLip-EA-OH was evaluated at multiple concentrations for an effect on activation of IGF1 receptor kinase (IGF1R) and Src. The compounds tested activated IGF1R and Src with different selectivities.

[5] = target: T1, insulin receptor kinase (Homo sapiens, UniProt P06213); assay: IRK activation assay (mobility shift kinase assay); assay type: biochemical
T1 construct: insulin receptor kinase domain (Millipore catalog #14-466, 80 nM); purchased Millipore 14-466
T1 sequence (P06213 1023-1298 limits assumed): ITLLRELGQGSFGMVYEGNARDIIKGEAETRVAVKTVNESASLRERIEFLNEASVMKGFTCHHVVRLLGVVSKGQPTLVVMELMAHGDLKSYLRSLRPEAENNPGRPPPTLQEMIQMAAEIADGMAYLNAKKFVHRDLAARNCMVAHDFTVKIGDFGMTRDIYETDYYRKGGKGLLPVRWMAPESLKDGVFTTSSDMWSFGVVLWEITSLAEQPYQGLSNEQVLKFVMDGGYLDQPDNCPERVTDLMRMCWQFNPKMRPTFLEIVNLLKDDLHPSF
Source text: Insulin receptor kinase activity was readily measured by a mobility shift assay using a Caliper LabChip® 3000 and a 12-sipper LabChip® to detect both phosphorylated and unphosphorylated substrate (Caliper Life Sciences, Discovery Alliances and Services Division, Hanover, Md.). The mobility-shift kinase assay uses a micro fluidic chip to measure the conversion of a fluorescent peptide substrate to a phosphorylated product. The reaction mixture from a microtiter plate well was introduced through a capillary sipper onto the chip and the nonphosphorylated substrate and phosphorylated product were separated by electrophoresis and detected via laser-induced fluorescence. […] The catalytic subunits of tyrosine kinases have endogenous levels of activity in the presence of ATP and substrate, thus the results are presented as a % of control.
Specifically, each test compound was diluted to 25 times its assay concentration with 100% DMSO and added to 12 μL of an assay buffer solution (100 mM HEPES, 10 mM MnCl2, 5 mM B-GP, and 0.002% Brij) containing dithiotheritol (DTT, 2 mM) and insulin receptor kinase domain (Millipore catalog #14-466, 80 nM) prior to pre-incubation at room temperature for 15 minutes. […] The samples were placed on the LabChip 3000 to measure the amount of parent substrate and phosphorylated product. […]

[6] = target: Src (Homo sapiens, UniProt P12931); assay: Src tyrosine kinase activation assay (mobility shift); assay type: biochemical
Src, sequence (P12931 whole entry, species assumed): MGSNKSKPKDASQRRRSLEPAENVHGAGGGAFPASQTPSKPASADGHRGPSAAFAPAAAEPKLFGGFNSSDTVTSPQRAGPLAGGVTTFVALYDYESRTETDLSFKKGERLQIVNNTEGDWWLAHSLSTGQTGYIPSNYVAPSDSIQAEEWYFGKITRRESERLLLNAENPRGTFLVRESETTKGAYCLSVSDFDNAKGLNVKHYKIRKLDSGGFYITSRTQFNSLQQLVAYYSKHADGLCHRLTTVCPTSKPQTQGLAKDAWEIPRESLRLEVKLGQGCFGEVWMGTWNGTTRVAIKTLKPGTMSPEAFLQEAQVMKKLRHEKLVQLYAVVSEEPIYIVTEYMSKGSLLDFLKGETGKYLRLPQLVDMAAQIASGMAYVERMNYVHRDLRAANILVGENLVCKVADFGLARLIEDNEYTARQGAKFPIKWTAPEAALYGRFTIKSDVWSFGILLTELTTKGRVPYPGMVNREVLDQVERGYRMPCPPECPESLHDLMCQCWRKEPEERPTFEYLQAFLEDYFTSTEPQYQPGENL
Source text: as §1, §2

[7] = test system: myocardial ischemia-reperfusion injury; assay: Rat model of myocardial I/R injury (MI/AR ratio); assay type: in vivo; conditions: rat
[8] = test system: Akt; assay: Cytoblot assay for Akt activation in A549 cells; assay type: cell-based, human
Experimental: The ability of RLip-EA-OH to increase phosphorylated Akt was assayed using an in-cell western blot, or cytoblot. A549 cells (human non-small cell lung cancer cell line) were selected because these cells can be manipulated to increase or decrease the level of phosphoryated Akt. The cells were inoculated onto culture plates and allowed to adhere to the bottom, then treated, fixed, and permeabilized. Following permeabilization, the cells were treated with antibodies specific for either phospho-Akt or total Akt. The cells were then treated with fluorescent secondary antibodies to quantify the amount of bound primary antibody. Total Akt and phospho-Akt were simultaneously detected.
A549 cells were plated in 384 well black-wall, clear-bottom, cell culture-treated microtiter plates at 70% confluence. Cells were incubated overnight to allow cell attachment. The media was changed to low serum (0.1%, fetal bovine serum [FBS]) and the cells were incubated for another 24 hours. Cells were treated with test compounds, fixed and permeabilized for the Akt assay. The fixative was 3.7% formaldehyde in phosphate buffered saline. The permeabilization buffer was 0.5% Triton X-100 in phosphate buffered saline. After permeabilization of cells, the amounts of total Akt and phosphorylated Akt at either of the two phosphorylation sites (threonine-308 and serine-473) were determined at 7 test concentrations, each performed in quadruplicate. The phospho-Akt data were normalized to total Akt and background subtracted for analysis.
Following overnight serum starvation to reduce basal Akt phosphorylation, cells were stimulated with vehicle, RLip-EA-OH, or RLip-OH. Cells were treated for 45 minutes or 3 hours and studied for phosphorylation at serine-473 or threonine 308, respectively.

[9] = test system: Akt; assay: Immunohistochemistry assay for phosphorylated Akt in H9c2 cells; assay type: cell-based, rat; conditions: co-treatment with LY294002 (25 μM), 30 minutes prior to RLip-EA-OH
Experimental: The ability of RLip-EA-OH to increase phosphorylated Akt was assayed in H9c2 cells by immunocytochemistry followed by visualization using microscopy. H9c2 cells are a cell line derived from rat cardiac myocytes and can be manipulated to increase or decrease the level of phosphoryated Akt. Cells were inoculated onto culture plates and allowed to adhere to the bottom, treated, fixed, and permeabilized. Following permeabilization, cells were treated initially with specific phospho-Akt antibodies followed by fluorescent secondary antibodies to quantify the amount of bound primary antibody.
H9c2 cells were plated in 12 well cell culture treated plates at 70% confluence. Cells were incubated overnight to allow cell attachment. The media was changed to low serum (0.5%, fetal bovine serum [FBS]) and cells incubated for another 48 hours. Cells were treated for 3 hours with either vehicle, RLip-EA-OH (50 μM), or co-treatment with LY294002 (25 μM), fixed with 3.7% formaldehyde in phosphate buffered saline and permeabilized with 0.5% Triton X-100 in phosphate buffered saline. After permeabilization, the cells were treated with antibody specific for Akt phosphorylated at threonine-308, followed by treatment with a fluorescent labeled secondary antibody.

In the case of CC(=O)N[C@@H](CCC(=O)O)C(=O)N[C@@H](C)C(=O)O [Ac-EA-OH, N-acetyl-L-glutamyl-L- alanine, reference compound] (Ac-Glu-Ala-OH), the “effect on carbachol stimulated flux in cytosolic calcium” value [1] is reported as “minimal effect”, the “efficacy compared to vehicle” value [2] is reported as “statistically similar to vehicle” and the “peroxyl radical absorption capability” value ([3]; ORAC assay) is reported as “no appreciable peroxyl radical absorption capability”. For the same compound, the “ORAC Value relative to RLip-OH” value ([3]; mean of 3-4 experiments) was 8 ± 5.

In the case of C[C@H](NC(=O)[C@H](CCC(=O)O)NC(=O)CCCC[C@H]1CCSS1)C(=O)O [SLip-EA-OH, N-(S)-lipoyl-L-glutamyl-L- alanine], the “IGF1R % activity above control (±SEM)” value ([4]; 100 μM) is reported as −4 ± 10%, the “AVG % activity above control (±SEM)” value ([5]; 100 μM) is reported as 4 ± 12% and the “Src % activity above control (±SEM)” value ([6]; 100 μM) is reported as 19 ± 1%. For the same compound, the “ORAC Value relative to RLip-EA-OH” value ([3]; mean of 3-4 experiments) was 89 ± 4, the MI/AR ([7]; 1 mg/kg single bolus IC 15 minutes prior to ischemia) was 0.401 and the MI/AR ([7]; 2 mg/kg single bolus IC 15 minutes prior to ischemia) was 0.400.

For O=c1cc(N2CCOCC2)oc2c(-c3ccccc3)cccc12 [LY294002, 2-(4-morpholinyl)-8-phenyl-4H-1-benzopyran-4-one, reference compound], the “effect on RLip-EA-OH-increased phosphorylation of Akt” value ([8]; cotreatment with 5 μM LY294002, 3 hours) was “completely inhibited” and the “effect on fluorescence intensity from Akt phosphorylation induced by RLip-EA-OH” value [9] was “diminished the fluorescence intensity”.

With O=C(O)CCCC[C@@H]1CCSS1 [RLip-OH, (R)-lipoic acid, reference compound] the “IGF1R % Increase in activity above vehicle control” value ([4]; 300 μM) was 37 ± 4%, the “effect on carbachol stimulated flux in cytosolic calcium” value [1] was “minimal effect” and the “increase in phosphorylated Akt at serine 473” value ([8]; 45 minutes of treatment) was 2 fold. The “amount of phosphorylated Akt relative to total Akt” value ([8]; variant concentrations) was “increased the amount of phosphorylated Akt relative to total Akt in a dose dependent manner”, the “IRK % Increase in activity above vehicle control” value ([5]; 300 μM) was 48 ± 1% and the “Src % Increase in activity above vehicle control” value ([6]; 300 μM) was 15 ± 1%. The “ORAC Value relative to RLip-OH” value ([3]; mean of 3-4 experiments) was 100 ± 6 and the “Reduction of MI:AR Ratio Relative to Vehicle (%)” value ([7]; 2 mg/kg IC, Table 7 meta analysis) was 19 ± 7 %.
